Earlier results, collected in patent US20130029862A1, “Clinical application utilizing genetic data for effective medication management” (priority 2011, published 2013).

Experiments:
[1] = carriers of C allele compared to T/T homozygotes, ApoE rs7412
[2] = Met/Met (A/A) compared to Val/Val (G/G), COMT rs4680

Structure (SMILES) | weight gain [1] | response with antidepressant [2]
Cc1cc2c(s1)Nc1ccccc1N=C2N1CCN(C)CC1 [olanzapine] | likely to gain weight on olanzapine | –
Fc1ccc([C@@H]2CCNC[C@H]2COc2ccc3c(c2)OCO3)cc1 [paroxetine] | – | Better response with antidepressant
